# Assay results from PubChem BioAssay (NCI).
#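 Test compounds were applied to cells in 96-well plates for 48 hours at 5 doses. TGI denotes the concentration required for complete inhibition of growth.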
# How the values were obtained:
# Experiment in all cases: NCI-60 cell line screen, 48 h
# [1] = system: PC-3 prostate
# [2] = system: TK-10 renal
# [3] = system: HCT-116 colon
# [4] = system: HCT-15 colon
# [5] = system: UACC-62 melanoma
# [6] = system: SK-MEL-28 melanoma
# [7] = system: DU-145 prostate
# [8] = system: SK-MEL-5 melanoma
# [9] = system: SN12C renal
# [10] = system: ACHN renal
SMILES,TGI [1] [µM],TGI [2] [µM],TGI [3] [µM],TGI [4] [µM],TGI [5] [µM],TGI [6] [µM],TGI [7] [µM],TGI [8] [µM],TGI [9] [µM],TGI [10] [µM]
CCCCN1C(=O)C[C@H]2[C@@H]3CCc4cc(OCCN5CCCC5)ccc4[C@H]3CC[C@]2(C)C1=O,20.4,28.3,16.4,22.4,10.4,12,27,15.7,30.2,25.5
CC1(CC(=O)OC(C#C[Si](C)(C)C)Cc2ccccc2)OCCO1 (stereo not given),> 100,> 100,> 100,> 100,> 100,> 100,> 100,> 100,> 100,> 100
CC(=O)OCC1OC(OC2CC3C(C)(C)C(=O)CC[C@]3(C)C3CC[C@]45C[C@]4(CCC5[C@@H](C)CC(O)C(O)C(C)(C)O)[C@]23C)C(O)C(O)C1O (stereo not given in full),21.5,28.1,20,31.4,22.5,12.6,30.9,20.3,26.4,30
COc1ccc(C2Oc3c(cccc3OC)C=C2[N+](=O)[O-])cc1 (stereo not given),5.16,7.5,2.55,5.81,5.72,4.37,16.4,2.93,5.66,3.38
CC(C)(C)OC(=O)N1C(=O)OC[C@@H]2C=C[C@@H]21,> 100,> 100,> 100,> 100,> 100,> 100,> 100,> 100,> 100,> 100
Clc1cccc(Cl)c1C1SCc2nc3ncccc3n21 (stereo not given),> 100,> 100,> 100,> 100,> 100,> 100,> 100,> 100,> 100,> 100
CN(CCNC(=O)c1cc(-c2ccccc2)nc2ccccc12)CCNC(=O)c1cc(-c2ccccc2)nc2ccccc12,> 100,> 100,> 46.4,> 100,39.5,5.29,> 95.5,5.7,> 100,> 100
CC1OC2OC3C(OCC(O)C3O)OC(=O)[C@]34CCC(C)(C)CC3C3=CCC5[C@@]6(C)C[C@H](O)[C@H](OC7OC(CO)C(O)C(O)C7OC7OC(COC(=O)CC(C)(O)CC(=O)OC1C(O)C2O)C(O)C(O)C7O)[C@@](C)(CO)C6CC[C@@]5(C)[C@]3(C)CC4 (stereo not given in full),2.56,2.89,3.39,2.91,2.81,2.79,3.02,2.34,4.37,2.52
COc1cc(C2c3cc4c(cc3OC(O)C2C)OCO4)cc(OC)c1O (stereo not given),> 100,57.4,38.3,> 57.4,52.4,> 91.6,> 100,> 51.6,> 75.3,> 100
CCC(CCCCC1CC[C@H]2CC(=O)C[C@@H]12)OC (stereo not given in full),> 100,> 100,> 100,> 100,> 100,> 100,> 100,> 100,> 100,> 100
